Measured values: patent publication EP0585371B1, “AROMATIC OLIGOMERIC COMPOUNDS USEFUL AS MIMICS OF BIOACTIVE MACROMOLECULES” (RHONE-POULENC RORER INTERNATIONAL (HOLDINGS) INC., priority 1991, dated 1992)

Legend:
normal pooled plasma = assay: Anticoagulation activity, Activated Partial Thromboplastin Time (APTT) test; settings: concentration required to double clotting time
Method: The following test measures anticoagulant activity of the oligomers of the present invention and utilizes the Activated Partial Thromboplastin Time (APTT) test, with the following procedures.
To an assay cuvette is added 100 µl of normal pooled plasma (George King Biomedical Inc., Kansas) and […] of a solution containing the test compound in aqueous 50 mM Tris hydrochloride at pH 7.5 (0.2 mg of sample in one ml buffer). The sample is placed in a MLA coagulation timer which automatically maintains the sample at 37°C for 2.5 minutes, 100 µl of actin activated cephaloplastin reagent is injected, kept 5 minutes, 100 µl of 35 mM CaCI is injected, and clot formation is determined photometrically and the clotting time recorded. Each example is examined at a variety of concentrations, generally from about .025 mg/ml to about 1 mg/ml, and the clotting times are graphed as a function of concentration. From the graphic results, the concentration required to double clotting time (ICDCT) is calculated by linear interpolation.

vWF Binding to Gp1b = biological target: T1, vWF Binding to Gp1b (Homo sapiens, UniProt P04275+P07359); assay: Inhibition of ristocetin-induced binding of 125I-vWF to formalin-fixed platelets; settings: ristocetin 1.0 mg/ml; for Ristocetin-Induced Inhibition of vWF Binding to Gp1b: at 100 µg/ml
T1 construct: multimeric vWF (isolated from human plasma cryoprecipitate); Formalin-fixed platelets, prepared according to the method of MacFarlane; from tissue; host or cells: vWF from human plasma cryoprecipitate; GPIb on formalin-fixed platelets
Method: The binding of vWf (vonWillebrand Factor) to glycoprotein Ib is measured in one of two experimental systems, in the presence of either ristocetin or botrocetin as modulators of binding. The ristocetin modulated binding is described herein.
Formalin-fixed platelets, prepared according to the method of MacFarlane, D. et al., Thromb. Diath. Haemorrh. 34, 306-308 (1975), were preincubated at room temperature for 15 minutes with specified dilutions of oligomers according to the present invention. Ristocetin, (Sigma, St. Louis, MO) diluted to a final concentration of 1.0 mg/ml, and ^125I-labelled multimeric vWF (isolated from human plasma cryoprecipitate according to the method of Fulcher, C.A. et al. Proc. Natl. Acad. Sci. USA, 79, 1648-1652 (1982), and labelled according to the method of Fraker, P.J. et al. Biochem. Biophys. Res. Commun., 80, 849-857 (1978)) were then added to the incubation mixture, and the amount of ^125I- vWF bound to the platelets was determined. ^125I-vWF binding to the platelets was referenced against 100% binding which was defined as the amount of ^125I- vWF bound in the absence of added oligomer compound. The method for measuring vWF binding is reported in detail in Ruggeri et al., J. Clin. Invest., 72, 1-12, (1983), herein incorporated by reference.

[1] = biological target: T2, ESb mouse lymphoma heparanase (Mus musculus, UniProt Q6YGZ1); assay: Inhibition of heparanase activity (degradation of labeled ECM heparan sulfate); format: biochemical; settings: 24 hours incubation with labeled ECM
T2 construct: endogenous in cells; host or cells: ESb mouse lymphoma cells
T2 sequence (Q6YGZ1 28-535): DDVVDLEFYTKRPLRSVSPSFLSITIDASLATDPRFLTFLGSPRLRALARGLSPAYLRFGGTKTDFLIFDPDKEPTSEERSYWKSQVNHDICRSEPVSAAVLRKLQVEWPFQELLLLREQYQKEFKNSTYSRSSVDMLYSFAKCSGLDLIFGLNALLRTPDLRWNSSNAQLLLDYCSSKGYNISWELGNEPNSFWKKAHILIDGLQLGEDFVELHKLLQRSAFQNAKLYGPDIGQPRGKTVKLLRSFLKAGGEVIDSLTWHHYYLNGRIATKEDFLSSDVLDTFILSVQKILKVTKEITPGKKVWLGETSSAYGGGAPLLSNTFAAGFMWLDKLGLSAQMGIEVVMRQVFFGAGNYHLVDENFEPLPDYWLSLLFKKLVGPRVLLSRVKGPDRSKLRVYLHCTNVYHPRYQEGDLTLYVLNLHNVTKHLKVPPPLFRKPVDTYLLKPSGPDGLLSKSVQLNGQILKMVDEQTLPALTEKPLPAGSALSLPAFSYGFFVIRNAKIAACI
Method: Heparanase is an endoglucuronidase capable of degrading […] (HS) at specific intrachain sites.
The ability of compounds of the present invention to inhibit lymphomacell derived heparanase is tested in the assay system described by Vlodavsky et al., Cancer Research 43, 2704-2711 (1983). […] labeled ECM is incubated for 24 hours with ESb mouse lymphoma heparanase in the presence of various concentrations of the oligomers tested. Degradation of the HS is followed by gel filtration of the supematants. Heparanase activity is expressed as the total amount of labeled low-molecular-weight fragments released from the EMC substrate.

[2] = tested on: human fixed thrombin activated platelets; assay: Platelet aggregation inhibition (fibrinogen-induced); format: cell-based; settings: human fibrinogen added
Method: The method for measuring platelet aggregation inhibition is essentially that of Ruggeri, et al., Proc. Natl. Acad. Sci. USA, 83, 5708-5712 (1986), using formalin-fixed platelets as prepared by Plow, et al., Proc. Natl. Acad. Sci. USA, 79, 3711-3715 (1982). A given amount of the compound of the present invention or other compound to be tested (10 to 100 µl of a 1 mg/ml solution) is incubated at 37°C with 400 µl of human fixed thrombin activated platelets for 2 minutes. 12.5 µl of human fibrinogen solution is added and aggregation is monitored using a platelet aggregation profiler (Model PAP-4). Controls consist of fibrinogen added to incubated platelets and the resulting aggregation is considered as 100%. Percent inhibition in the presence of a given concentration of test compound versus concentration of the compound is plotted and the concentration required to give 50% inhibition (IC50) is determined.

T1 sequence (P04275 764-2813 limits assumed): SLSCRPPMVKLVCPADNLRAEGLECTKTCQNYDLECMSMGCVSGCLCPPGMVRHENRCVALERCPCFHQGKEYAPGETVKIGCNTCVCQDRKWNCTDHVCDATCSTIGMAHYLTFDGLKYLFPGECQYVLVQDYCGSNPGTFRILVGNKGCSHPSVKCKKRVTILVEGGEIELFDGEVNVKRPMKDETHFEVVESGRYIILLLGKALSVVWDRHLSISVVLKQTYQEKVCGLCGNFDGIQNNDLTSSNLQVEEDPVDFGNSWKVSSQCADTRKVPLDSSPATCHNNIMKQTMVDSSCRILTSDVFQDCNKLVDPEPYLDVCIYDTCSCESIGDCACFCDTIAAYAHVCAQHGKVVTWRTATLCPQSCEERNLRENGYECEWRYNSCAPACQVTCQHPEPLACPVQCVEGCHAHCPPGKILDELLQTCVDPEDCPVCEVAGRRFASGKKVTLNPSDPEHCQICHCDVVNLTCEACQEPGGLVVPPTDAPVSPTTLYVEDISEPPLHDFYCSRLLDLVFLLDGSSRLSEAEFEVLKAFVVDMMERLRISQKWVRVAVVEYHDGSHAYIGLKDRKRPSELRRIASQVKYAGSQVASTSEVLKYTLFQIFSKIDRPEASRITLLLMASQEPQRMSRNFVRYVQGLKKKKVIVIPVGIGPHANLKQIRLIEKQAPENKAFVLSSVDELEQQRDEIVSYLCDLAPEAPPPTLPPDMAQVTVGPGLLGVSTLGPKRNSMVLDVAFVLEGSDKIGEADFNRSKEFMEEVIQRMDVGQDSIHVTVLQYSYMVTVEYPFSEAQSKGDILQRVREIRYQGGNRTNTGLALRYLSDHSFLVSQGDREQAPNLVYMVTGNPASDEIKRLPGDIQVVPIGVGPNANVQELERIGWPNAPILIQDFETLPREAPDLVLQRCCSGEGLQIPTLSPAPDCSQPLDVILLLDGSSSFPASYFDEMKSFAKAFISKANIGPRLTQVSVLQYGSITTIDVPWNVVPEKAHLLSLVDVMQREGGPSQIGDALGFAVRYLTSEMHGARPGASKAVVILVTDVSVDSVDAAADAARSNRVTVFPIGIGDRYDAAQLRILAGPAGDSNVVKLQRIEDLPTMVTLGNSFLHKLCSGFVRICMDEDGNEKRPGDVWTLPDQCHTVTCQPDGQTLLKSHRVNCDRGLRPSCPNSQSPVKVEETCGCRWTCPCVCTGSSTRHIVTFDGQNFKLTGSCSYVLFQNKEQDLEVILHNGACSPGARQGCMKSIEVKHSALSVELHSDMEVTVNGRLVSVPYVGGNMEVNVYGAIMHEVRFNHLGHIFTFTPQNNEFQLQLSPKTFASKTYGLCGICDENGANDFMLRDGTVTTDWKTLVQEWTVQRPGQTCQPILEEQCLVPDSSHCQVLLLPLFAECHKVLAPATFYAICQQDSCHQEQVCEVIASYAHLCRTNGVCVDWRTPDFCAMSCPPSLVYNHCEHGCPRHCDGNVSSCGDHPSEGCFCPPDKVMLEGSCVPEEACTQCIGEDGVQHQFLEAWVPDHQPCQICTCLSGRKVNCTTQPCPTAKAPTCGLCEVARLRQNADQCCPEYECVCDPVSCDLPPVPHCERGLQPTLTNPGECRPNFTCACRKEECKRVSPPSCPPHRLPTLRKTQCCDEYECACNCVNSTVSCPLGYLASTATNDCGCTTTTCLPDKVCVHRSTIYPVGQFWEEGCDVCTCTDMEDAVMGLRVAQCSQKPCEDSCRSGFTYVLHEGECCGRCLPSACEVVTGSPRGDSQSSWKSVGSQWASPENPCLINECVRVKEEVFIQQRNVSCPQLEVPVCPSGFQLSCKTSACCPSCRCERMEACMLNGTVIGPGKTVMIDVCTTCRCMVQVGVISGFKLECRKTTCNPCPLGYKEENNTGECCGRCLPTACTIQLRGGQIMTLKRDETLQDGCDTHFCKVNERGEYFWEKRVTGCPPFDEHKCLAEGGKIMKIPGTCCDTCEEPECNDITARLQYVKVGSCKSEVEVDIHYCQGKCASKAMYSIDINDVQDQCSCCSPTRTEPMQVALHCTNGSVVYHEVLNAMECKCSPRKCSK
T1 sequence (P07359 17-652): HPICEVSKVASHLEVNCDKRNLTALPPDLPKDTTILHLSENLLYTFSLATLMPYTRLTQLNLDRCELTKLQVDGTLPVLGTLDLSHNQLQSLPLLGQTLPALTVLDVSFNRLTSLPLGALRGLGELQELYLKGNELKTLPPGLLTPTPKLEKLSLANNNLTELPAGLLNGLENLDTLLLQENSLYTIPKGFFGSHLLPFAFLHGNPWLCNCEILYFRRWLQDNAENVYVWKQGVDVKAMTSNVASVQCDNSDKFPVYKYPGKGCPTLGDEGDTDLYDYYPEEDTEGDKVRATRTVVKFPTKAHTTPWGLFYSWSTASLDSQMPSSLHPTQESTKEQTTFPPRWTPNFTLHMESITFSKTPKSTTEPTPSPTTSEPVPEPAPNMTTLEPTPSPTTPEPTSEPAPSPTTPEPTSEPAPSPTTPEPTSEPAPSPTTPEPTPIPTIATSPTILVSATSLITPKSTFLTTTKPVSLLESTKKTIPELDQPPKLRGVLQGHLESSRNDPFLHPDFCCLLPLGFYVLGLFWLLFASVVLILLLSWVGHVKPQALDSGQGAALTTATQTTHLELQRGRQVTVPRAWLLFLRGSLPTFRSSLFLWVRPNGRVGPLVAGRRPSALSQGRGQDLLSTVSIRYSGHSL

Row | SMILES | APTT ICDCT (normal pooled plasma) [µg/mL] | Ristocetin-Induced Inhibition of vWF Binding to Gp1b IC50 (vWF Binding to Gp1b) [µg/mL] | IC50 (vWF Binding to Gp1b) [µM] | % Inhibition of Heparanase Activity (5µg/ml) [1] [%] | Platelet Aggregation IC50 [2] [µg/mL] | Ristocetin-Induced Inhibition of vWF Binding to Gp1b (vWF Binding to Gp1b) [% at 100 µg/ml]
1 | COc1ccc(CCC(=O)O)c(COc2cc(CCC(=O)O)c(COc3cc(CCC(=O)O)c(COc4cc(CCC(=O)O)c(COc5cc(CCC(=O)O)ccc5OC)cc4OC)cc3OC)cc2OC)c1 [Ex12, Step 11, 2-[4-[4-[4-[[5-(2-carboxyethyl)-2-methoxy]phenoxymethyl]-[5-(2-carboxyethyl)-2-methoxy]phenoxymethyl]-[5-(2-carboxyethyl)-2-methoxy]phenoxymethyl]-[5-(2-carboxyethyl)-2-methoxy]phenoxymethyl]-4-methoxyhydrocinnamic acid] | >250 | >100 | – | – | – | –
2 | O=C(O)CCc1ccc(O)c(Cc2cc(CCC(=O)O)cc(Cc3cc(CCC(=O)O)cc(Cc4cc(CCC(=O)O)ccc4O)c3O)c2O)c1 [Ex 1, Step 3, bis-[5-(2-carboxyethyl)-3-[5-(2-carboxyethyl)-2-hydroxybenzyl]2-hydroxyphenyl]methane] | >250 | – | > 143 | – | – | –
3 | COc1cc(C)c(CCC(=O)O)cc1Cc1cc(OC)c(Cc2cc(OC)c(Cc3cc(OC)c(Cc4cc(OC)c(Cc5cc(OC)c(Cc6cc(OC)c(Cc7cc(O)ccc7CCC(=O)O)cc6CCC(=O)O)cc5CCC(=O)O)cc4CCC(=O)O)cc3CCC(=O)O)cc2CCC(=O)O)cc1CCC(=O)O [Ex 5, Step 2, 5-[4-[4-[4-[4-[4-[4-[[2-(2-carboxyethyl)-5-hydroxy]benzyl]-[2-(2-carboxyethyl)-5-methoxy]benzyl]-[2-(2-carboxyethyl)-5-methoxy]benzyl]-[2-(2-carboxyethyl)-5-methoxy]benzyl]-[2-(2-carboxyethyl)-5-methoxy]benzyl]-[2-(2-carboxyethyl)-5-methoxy]benzyl]-[2-(2-carboxyethyl)-5-methoxy]benzyl]-4-methoxy-2-methylhydrocinnamic acid] | 37 | – | – | 20 | >1000 | –
4 | O=C(O)CCc1cc(Cc2cc(O)c(Cc3cc(O)c(Cc4cc(O)ccc4CCC(=O)O)cc3CCC(=O)O)cc2CCC(=O)O)c(O)cc1CCc1cc(O)c(Cc2cc(O)c(Cc3cc(O)c(Cc4cc(O)ccc4CCC(=O)O)cc3CCC(=O)O)cc2CCC(=O)O)cc1CCC(=O)O [Ex 6, 1,2-bis-[4-[4-[4-[[2-(2-carboxyethyl)-5-hydroxy]benzyl]-[2-(2-carboxyethyl)-5-hydroxy]benzyl]-(2-(2-carboxyethyl)-5-hydroxy]benzyl]-[2-(2-carboxyethyl)-5-hydroxy]phenyl]ethane] | 387 | – | – | – | >1000 | 42
5 | COc1cc(CCc2cc(OC)c(Cc3cc(OC)c(Cc4cc(OC)c(Cc5cc(O)ccc5CCC(=O)O)cc4CCC(=O)O)cc3CCC(=O)O)cc2CCC(=O)O)c(CCC(=O)O)cc1Cc1cc(OC)c(Cc2cc(OC)c(Cc3cc(O)ccc3CCC(=O)O)cc2CCC(=O)O)cc1CCC(=O)O [Ex 7, 1,2-bis-[4-[4-[4-[[2-(2-carboxyethyl)-5-hydroxy]benzyl]-[2-(2-carboxyethyl)-5-methoxy]benzyl]-[2-(2-carboxyethyl)-5-methoxy]benzyl]-[2-(2-carboxyethyl)-5-methoxy]phenyl]ethane] | 500 | – | – | – | – | 17
6 | COc1cc(Cc2cc(CCC(=O)O)c(C)cc2O)c(CCC(=O)O)cc1Cc1cc(OC)c(Cc2cc(OC)c(Cc3cc(OC)c(Cc4cc(OC)c(Cc5cc(OC)c(Cc6cc(OC)c(Cc7cc(OC)c(Cc8cc(OC)c(Cc9cc(OC)c(Cc%10cc(OC)c(Cc%11cc(OC)c(Cc%12cc(OC)c(Cc%13cc(OC)c(Cc%14cc(O)ccc%14CCC(=O)O)cc%13CCC(=O)O)cc%12CCC(=O)O)cc%11CCC(=O)O)cc%10CCC(=O)O)cc9CCC(=O)O)cc8CCC(=O)O)cc7CCC(=O)O)cc6CCC(=O)O)cc5CCC(=O)O)cc4CCC(=O)O)cc3CCC(=O)O)cc2CCC(=O)O)cc1CCC(=O)O [Ex 8] | 35 | – | – | 70 | – | –
7 | COc1cc(CCc2cc(OC)c(Cc3cc(OC)c(Cc4cc(OC)c(Cc5cc(OC)c(Cc6cc(OC)c(Cc7cc(OC)c(Cc8cc(OC)c(Cc9cc(O)ccc9CCC(=O)O)cc8CCC(=O)O)cc7CCC(=O)O)cc6CCC(=O)O)cc5CCC(=O)O)cc4CCC(=O)O)cc3CCC(=O)O)cc2CCC(=O)O)c(CCC(=O)O)cc1Cc1cc(OC)c(Cc2cc(OC)c(Cc3cc(OC)c(Cc4cc(OC)c(Cc5cc(OC)c(Cc6cc(OC)c(Cc7cc(O)ccc7CCC(=O)O)cc6CCC(=O)O)cc5CCC(=O)O)cc4CCC(=O)O)cc3CCC(=O)O)cc2CCC(=O)O)cc1CCC(=O)O [Ex 9, 1,2-bis-[4-[4-[4-[4-[4-[4-[4-[[2-(2-carboxyethyl)-5-hydroxy]benzyl]-[2-(2-carboxyethyl)-5-methoxy]benzyl]-[2-(2-carboxyethyl)-5-methoxy]benzyl]-[2-(2-carboxyethyl)-5-methoxy]benzyl]-[2-(2-carboxyethyl)-5-methoxy]benzyl]-[2-(2-carboxyethyl)-5-methoxy]benzyl]-[2-(2-carboxyethyl)-5-methoxy]benzyl]-[2-(2-carboxyethyl)-5-methoxy]phenyl]ethane] | 105 | – | – | 52 | 319 | –
8 | COC(=O)CCc1cc(OCc2cc(OC)c(OCc3cc(OC)c(OCc4cc(OC)c(OC(C)=O)cc4CCC(=O)OC)cc3CCC(=O)OC)cc2CCC(=O)OC)c(OC)cc1CO [Ex 10, Step 13] | >250 | – | – | – | – | –
